In patent US12617787B2, “Merged scaffold TAF1 inhibitors” (H. LEE MOFFITT CANCER CENTER AND RESEARCH INSTITUTE, INC., priority 2020, dated 2026):
“Also recorded” adds a separate entry of the source.

Experiments:
TAF1-2 = target: T1, TAF1-2 (Homo sapiens, UniProt P21675); experiment: DSF for TAFi with TAF1-2; type: binding; details: protein TAF1-2, DMSO = 0
T1 construct: a tandem bromodomain (BD1 and BD2)
T1 sequence (P21675 1519-1628 limits assumed): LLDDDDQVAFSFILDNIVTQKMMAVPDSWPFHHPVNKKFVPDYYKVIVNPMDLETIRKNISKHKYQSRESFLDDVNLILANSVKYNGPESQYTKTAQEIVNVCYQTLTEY

purified FLAG-ATR = target: T2, purified FLAG-ATR (Homo sapiens, UniProt Q13535); experiment: ELISA-based kinase activity: phosphorylation of p53 S15 by purified FLAG-ATR in vitro; type: biochemical; details: FIG. 3
T2 construct: FLAG
T2 sequence (Q13535 whole entry): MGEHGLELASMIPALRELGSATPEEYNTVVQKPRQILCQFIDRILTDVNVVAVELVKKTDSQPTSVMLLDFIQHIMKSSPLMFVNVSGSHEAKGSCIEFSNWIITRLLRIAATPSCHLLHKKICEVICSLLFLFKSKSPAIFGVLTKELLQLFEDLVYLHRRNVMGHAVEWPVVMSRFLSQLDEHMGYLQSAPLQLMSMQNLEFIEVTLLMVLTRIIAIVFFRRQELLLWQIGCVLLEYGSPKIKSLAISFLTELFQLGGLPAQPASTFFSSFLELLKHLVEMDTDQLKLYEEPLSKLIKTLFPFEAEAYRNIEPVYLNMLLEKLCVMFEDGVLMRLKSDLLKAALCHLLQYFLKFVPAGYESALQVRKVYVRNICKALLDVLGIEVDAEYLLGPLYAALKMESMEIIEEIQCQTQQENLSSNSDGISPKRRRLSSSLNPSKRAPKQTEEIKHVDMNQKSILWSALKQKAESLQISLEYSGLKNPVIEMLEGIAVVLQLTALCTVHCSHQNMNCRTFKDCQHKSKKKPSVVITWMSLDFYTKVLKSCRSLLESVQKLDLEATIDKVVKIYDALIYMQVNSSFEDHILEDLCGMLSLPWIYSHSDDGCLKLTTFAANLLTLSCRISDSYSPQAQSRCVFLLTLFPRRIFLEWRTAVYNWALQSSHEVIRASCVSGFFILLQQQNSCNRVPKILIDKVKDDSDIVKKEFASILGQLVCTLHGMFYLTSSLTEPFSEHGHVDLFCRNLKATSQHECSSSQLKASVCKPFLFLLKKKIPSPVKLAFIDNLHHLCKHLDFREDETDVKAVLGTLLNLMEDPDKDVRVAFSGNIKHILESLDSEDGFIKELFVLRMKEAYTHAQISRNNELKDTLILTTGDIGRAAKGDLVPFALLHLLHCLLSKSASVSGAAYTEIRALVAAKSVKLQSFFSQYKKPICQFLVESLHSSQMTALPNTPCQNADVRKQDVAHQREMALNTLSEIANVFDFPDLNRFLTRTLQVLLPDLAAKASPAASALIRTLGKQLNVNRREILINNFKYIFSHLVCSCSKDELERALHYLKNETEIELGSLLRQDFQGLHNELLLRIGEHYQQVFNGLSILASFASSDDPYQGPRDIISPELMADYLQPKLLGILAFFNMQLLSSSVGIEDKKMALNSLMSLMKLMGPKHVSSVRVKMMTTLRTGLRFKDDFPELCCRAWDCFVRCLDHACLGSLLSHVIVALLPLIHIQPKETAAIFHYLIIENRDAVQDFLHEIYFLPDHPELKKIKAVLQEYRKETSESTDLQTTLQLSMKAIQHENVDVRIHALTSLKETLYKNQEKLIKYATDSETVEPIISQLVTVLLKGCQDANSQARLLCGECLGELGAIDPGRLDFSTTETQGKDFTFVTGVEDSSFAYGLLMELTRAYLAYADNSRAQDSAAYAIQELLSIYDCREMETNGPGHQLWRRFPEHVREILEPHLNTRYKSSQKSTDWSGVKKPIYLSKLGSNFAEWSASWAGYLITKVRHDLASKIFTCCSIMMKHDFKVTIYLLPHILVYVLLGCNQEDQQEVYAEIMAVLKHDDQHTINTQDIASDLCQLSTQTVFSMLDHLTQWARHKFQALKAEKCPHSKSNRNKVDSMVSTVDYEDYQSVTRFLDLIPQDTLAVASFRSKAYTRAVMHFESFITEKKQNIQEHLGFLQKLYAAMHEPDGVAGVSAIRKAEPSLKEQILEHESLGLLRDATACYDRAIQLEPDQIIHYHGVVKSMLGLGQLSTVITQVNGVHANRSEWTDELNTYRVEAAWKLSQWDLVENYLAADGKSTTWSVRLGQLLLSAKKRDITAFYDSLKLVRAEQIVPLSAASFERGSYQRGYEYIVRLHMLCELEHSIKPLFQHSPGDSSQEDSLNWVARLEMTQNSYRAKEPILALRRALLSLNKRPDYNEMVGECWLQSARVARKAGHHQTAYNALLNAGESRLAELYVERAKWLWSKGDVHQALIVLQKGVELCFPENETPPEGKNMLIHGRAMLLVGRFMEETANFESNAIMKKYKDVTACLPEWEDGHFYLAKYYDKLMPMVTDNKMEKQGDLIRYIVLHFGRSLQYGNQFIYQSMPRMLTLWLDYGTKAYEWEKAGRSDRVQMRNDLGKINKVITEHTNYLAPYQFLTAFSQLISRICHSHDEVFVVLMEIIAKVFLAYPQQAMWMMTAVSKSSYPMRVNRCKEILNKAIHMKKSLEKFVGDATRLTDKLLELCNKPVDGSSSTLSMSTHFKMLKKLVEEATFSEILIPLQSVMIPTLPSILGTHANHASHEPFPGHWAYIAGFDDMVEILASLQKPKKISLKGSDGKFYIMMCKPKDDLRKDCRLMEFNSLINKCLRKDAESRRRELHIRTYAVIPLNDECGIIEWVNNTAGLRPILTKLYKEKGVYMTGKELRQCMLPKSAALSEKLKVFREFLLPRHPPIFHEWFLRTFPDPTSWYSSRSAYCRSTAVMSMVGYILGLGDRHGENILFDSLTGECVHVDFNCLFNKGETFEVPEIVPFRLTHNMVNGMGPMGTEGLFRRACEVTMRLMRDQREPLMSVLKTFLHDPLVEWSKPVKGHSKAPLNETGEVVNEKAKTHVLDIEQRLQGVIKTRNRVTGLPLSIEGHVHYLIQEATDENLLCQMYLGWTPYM
Text: ELISA-based kinase activity was used to test the ability of compounds to inhibit phosphorylation of p53 S15 by purified FLAG-ATR in vitro.

[1] = test system: HCT116 cells with and without p53; experiment: Western blot of marker expression (p21) in HCT116 cells with and without p53; type: cell-based; details: HCT116 cells with and without p53, treated 30 hrs, FIG. 4
Procedure: HCT116 cells with and without p53 were treated with compounds for 30 hrs. Expression levels of indicated markers were determined by western blot.

| SMILES | ATm + SEM (° C.) (TAF1-2) | inhibition of ATR (phosphorylation of p53 S15) (purified FLAG-ATR) | p53-mediated p21 expression [1] |
| --- | --- | --- | --- |
| C[C@@H]1COCCN1c1cc(C2([S@](C)(=N)=O)CC2)nc(-c2cc[nH]c3nccc2-3)n1 [AZD6738] | 3.4 ± 0.1 °C | – | – |
| C=CCCn1cc(-c2cc(C3([S@](C)(=N)=O)CC3)nc(-c3ccnc4[nH]ccc34)n2)c2cc[nH]c2c1=O [ZS1-681] | – | does not inhibit ATR; also recorded: absence of inhibition | induces p53-mediated p21 expression |
| C=CCCn1cc(-c2cc(C(=O)N3CCOCC3)cc3c2ncn3C)c2cc[nH]c2c1=O [GNE-371, reference compound] | – | absence of inhibition | – |
